Assay results: patent publication US12161829B2 (OCON MEDICAL LTD., priority 2020, dated 2024)

Test system: endometrium
Excerpt: Efforts were made to recruit an equal number of women with high endometrial thickness (>7 mm) and low endometrial thickness (<7 mm). On the day of surgery, the subject underwent a vaginal ultrasound, to re-measure the endometrial thickness, and hysteroscopy, to visualize the uterine cavity and the endometrium.
After surgery, the extracted uterus was immediately evaluated by the study pathologist for gross pathology and silver nitrate coverage of the endometrium and was later subjected to pathology (macroscopic analyses of the intra-uterine cavity and microscopic analyses of the multiple sections of the uteri) histopathological evaluations to define the extent of active material endometrium coverage and endometrial ablation.

O=[N+]([O-])[O-].[Ag+] [silver nitrate] was tested, and the “Staining of / spillage via the fallopian tubes” value (30 minutes in uterus, extracted uterus) was “No staining of the fallopian tubes”, the Cervix findings (histology) was “superficial silver nitrate staining, with no damage to the columnar epithelium and no pathological findings” and the Cauterization effect (overall conclusion) was “elicited the expected cauterization effect”.
